Experimental findings from ChEMBL document CHEMBL1201862, “PubChem BioAssay data set” (2004) are described below.

Molecules are shown by their SMILES. Calls of active or inactive are those of the source.

Assay [1] deals with T1, Endoribonuclease toxin MazF (Escherichia coli K-12, UniProt P0AE70).
T1 sequence (P0AE70 whole entry): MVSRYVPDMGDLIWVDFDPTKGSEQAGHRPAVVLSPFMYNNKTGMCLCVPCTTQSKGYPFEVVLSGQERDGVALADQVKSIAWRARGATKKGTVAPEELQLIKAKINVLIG
Description: activation of MazEF endoribonuclease cleavage – biochemical, fluorescence, single-stranded RNA substrate, uHTS hits, dose response (AID 588481). The assay is classed as functional.

The target in assay [2] is T1, Endoribonuclease toxin MazF. Description: substrate-only fluorescence increase artefacts – biochemical, single-stranded RNase substrate, counter-screen for MazEF activator project, dose response (AID 588502). The class given is functional.
Assay [3] concerns the target T2, Replicative DNA helicase DnaB (Mycobacterium tuberculosis, UniProt P9WMR3).
T2 sequence (P9WMR3 whole entry): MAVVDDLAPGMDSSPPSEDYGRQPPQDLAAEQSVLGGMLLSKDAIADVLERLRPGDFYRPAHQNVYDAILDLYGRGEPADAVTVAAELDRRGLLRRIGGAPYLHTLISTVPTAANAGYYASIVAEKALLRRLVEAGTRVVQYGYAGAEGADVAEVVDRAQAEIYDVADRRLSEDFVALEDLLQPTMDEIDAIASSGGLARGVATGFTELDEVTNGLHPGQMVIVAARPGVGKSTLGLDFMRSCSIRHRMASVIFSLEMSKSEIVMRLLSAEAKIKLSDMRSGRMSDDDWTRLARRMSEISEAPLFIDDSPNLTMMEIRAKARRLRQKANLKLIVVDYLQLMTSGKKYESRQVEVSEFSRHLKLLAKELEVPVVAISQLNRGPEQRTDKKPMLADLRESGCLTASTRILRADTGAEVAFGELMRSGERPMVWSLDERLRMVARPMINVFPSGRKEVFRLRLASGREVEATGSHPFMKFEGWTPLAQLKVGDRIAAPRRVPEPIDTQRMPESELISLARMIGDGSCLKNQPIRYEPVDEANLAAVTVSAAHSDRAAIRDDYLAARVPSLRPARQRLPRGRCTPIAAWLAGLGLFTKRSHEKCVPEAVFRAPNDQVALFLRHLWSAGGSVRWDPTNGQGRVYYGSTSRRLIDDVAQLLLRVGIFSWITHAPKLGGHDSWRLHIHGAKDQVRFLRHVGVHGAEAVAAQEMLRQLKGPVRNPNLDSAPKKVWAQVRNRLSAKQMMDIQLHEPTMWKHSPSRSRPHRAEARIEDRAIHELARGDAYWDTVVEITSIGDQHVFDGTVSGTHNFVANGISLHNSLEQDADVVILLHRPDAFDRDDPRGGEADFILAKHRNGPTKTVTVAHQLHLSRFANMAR
Description: DnaB intein splicing inhibitors, dose response, biochemical, cell-free fluorescence (AID 449749). The class given is functional.

For another assay, the target named is T3, Protein RecA (Mycobacterium tuberculosis, UniProt P9WHJ3).
T3 sequence (P9WHJ3 whole entry): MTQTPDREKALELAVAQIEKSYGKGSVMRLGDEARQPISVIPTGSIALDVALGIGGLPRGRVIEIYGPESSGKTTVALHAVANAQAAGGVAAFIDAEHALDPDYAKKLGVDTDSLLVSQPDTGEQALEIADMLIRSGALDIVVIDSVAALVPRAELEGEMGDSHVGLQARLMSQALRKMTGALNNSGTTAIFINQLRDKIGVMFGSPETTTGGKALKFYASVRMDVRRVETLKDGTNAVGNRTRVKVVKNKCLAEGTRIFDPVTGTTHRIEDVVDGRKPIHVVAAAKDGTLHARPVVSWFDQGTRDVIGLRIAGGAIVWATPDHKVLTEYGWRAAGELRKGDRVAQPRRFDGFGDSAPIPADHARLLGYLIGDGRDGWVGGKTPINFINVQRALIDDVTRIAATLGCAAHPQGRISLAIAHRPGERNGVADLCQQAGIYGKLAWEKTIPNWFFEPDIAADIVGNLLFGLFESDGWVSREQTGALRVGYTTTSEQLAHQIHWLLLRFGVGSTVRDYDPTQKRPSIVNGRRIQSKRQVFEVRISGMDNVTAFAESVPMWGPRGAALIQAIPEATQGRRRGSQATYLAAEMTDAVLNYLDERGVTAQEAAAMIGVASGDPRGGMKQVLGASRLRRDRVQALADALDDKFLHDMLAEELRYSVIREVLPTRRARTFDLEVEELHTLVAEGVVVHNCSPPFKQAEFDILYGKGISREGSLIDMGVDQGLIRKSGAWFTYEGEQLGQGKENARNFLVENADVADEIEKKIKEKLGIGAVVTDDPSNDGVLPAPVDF
Description: Fluorescence Cell-Free Homogeneous Dose Retest to Identify Inhibitors of RecA-Intein Splicing Activity. [Related pubchem assays (depositor defined):AID2097, AID2223, AID489010, AID492950]. The class given is functional.

A short description of assay [4]: A549 cell cytotoxicity, dose response, cytotoxicity control, plate reader, cherry-pick, antagonist series (AID 743412). The class given is functional, cell-based.
Assay [5] can be described thus: toxicity toward HepG2 liver cells – cell-based, plate reader, cherry-pick, antagonist series, cytotoxicity control, dose response (AID 743416). The class given is functional.
The nature of assay [6]: blockers of bursicon-stimulated LGR2 cAMP reporter – cell-based, HEK293, CRE-luciferase reporter, cherry pick, set 2, dose response (AID 743343).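 Note: transfected cells were stimulated with diluted bursicon conditioned medium after compound addition.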 The assay is classed as functional.
Assay [7] can be described thus: blockade of melanocortin 4 receptor signaling – cell-based, plate reader, cherry pick, counter-screen for LGR2 antagonist project, dose response (AID 743444).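 Note: transfected HEK 293 cells stimulated with alpha-MSH peptide; potency of inhibitors of the alpha-MSH evoked signal.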 The assay is classed as functional.
Assay [8] can be described thus: viability loss in HEK293 cells – cell-based, plate reader, cherry-picked samples, cytotoxicity control, dose response (AID 743446). The class given is functional.
Assay [9] in a line: viability inhibitors of stage V gametocytes – luminescence, dose response (AID 1117278).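 Note: gametocytes exposed to compound for 24 hours.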 The class given is functional, cell-based.
A short description of assay [10]: viability loss in human Jurkat cells – cell-based, luminescence, cytotoxicity control for P. falciparum gametocyte viability project, dose response (AID 1117277).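 Note: potency reflects loss of cellular ATP meaning fewer viable cells.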 The assay is classed as functional.
The subject of the next assay is Vero. Description: cells. The assay is classed as functional, cell-based. As to conditions: Chlorocebus sabaeus.
Assay [11] addresses T4, High affinity choline transporter 1 (Homo sapiens, UniProt Q9GZV3).
T4 sequence (Q9GZV3 whole entry): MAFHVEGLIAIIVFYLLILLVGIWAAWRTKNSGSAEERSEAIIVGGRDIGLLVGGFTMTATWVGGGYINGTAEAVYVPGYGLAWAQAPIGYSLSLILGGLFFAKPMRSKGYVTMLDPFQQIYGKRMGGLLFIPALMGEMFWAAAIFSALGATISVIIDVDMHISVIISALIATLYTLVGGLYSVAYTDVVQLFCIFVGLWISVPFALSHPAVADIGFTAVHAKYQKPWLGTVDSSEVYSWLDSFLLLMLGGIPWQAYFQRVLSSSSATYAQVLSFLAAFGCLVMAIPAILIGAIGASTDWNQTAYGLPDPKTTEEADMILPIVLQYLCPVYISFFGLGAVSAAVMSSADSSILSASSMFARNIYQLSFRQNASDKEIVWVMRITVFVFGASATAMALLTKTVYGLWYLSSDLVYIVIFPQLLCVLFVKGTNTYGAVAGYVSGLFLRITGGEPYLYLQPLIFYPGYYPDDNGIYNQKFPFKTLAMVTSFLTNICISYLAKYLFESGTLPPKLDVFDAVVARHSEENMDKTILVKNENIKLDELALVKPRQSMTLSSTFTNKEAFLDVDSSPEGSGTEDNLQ
Description: human choline transporter blockers, potency – cell-based, 5-point CRC, membrane potential dye, dose response (AID 504840). The assay is classed as functional.

Another assay concerns the target T5, Coagulation factor XII (Homo sapiens, UniProt P00748).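 Note: activated factor XIIa alpha cleaving a fluorogenic AMC peptide substrate; inhibitor potency from loss of enzyme activity.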
T5 sequence (P00748 whole entry): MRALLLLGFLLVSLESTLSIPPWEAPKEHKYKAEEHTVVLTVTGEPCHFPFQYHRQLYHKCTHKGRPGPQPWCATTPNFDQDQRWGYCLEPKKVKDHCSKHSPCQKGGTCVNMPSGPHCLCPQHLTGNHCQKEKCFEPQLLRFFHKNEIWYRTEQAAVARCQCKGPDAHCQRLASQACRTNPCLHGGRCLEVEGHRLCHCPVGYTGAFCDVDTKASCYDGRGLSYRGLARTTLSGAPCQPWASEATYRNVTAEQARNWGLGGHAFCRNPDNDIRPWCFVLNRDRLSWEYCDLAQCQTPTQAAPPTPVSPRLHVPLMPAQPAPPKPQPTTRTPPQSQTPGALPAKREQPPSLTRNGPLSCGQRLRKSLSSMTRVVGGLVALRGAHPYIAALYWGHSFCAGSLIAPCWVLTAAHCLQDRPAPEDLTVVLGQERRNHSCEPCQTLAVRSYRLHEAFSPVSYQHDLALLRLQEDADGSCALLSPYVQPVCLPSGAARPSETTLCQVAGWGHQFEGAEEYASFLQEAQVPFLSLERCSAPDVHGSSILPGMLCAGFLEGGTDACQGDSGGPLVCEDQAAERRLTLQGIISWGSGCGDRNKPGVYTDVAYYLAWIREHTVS
The class given is functional.

Another assay concerns the target Paired box protein Pax-8 (Homo sapiens, UniProt Q06710). Description: PAX8 transcriptional activity inhibition in RMG-I – RMG-I cells, luciferase, cherry-pick, dose response (AID 687027).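 Note: luciferase reporter driven by Pax8 target thyroperoxidase promoter measured by SteadyGlo luminescence.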 The assay is classed as functional, cell-based.
Assay [12] addresses T6, Mannose-6-phosphate isomerase (Homo sapiens, UniProt P34949).
T6 sequence (P34949 whole entry): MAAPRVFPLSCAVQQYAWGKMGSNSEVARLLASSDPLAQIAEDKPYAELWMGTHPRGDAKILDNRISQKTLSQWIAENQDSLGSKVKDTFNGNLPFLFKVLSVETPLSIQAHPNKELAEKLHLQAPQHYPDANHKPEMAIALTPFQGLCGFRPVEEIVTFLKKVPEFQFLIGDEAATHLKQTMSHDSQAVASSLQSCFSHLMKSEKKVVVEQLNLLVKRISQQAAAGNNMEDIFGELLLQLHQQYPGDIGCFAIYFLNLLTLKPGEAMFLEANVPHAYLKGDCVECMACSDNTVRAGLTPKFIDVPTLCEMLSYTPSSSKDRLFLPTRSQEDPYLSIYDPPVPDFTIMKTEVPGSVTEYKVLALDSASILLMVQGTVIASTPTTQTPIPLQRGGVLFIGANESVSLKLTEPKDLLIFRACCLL
Description: MPI inhibition at elevated mannose 6-phosphate – biochemical, fluorescence intensity, high mannose 6-phosphate, primary screen (AID 1220).

Assay [13] has as its target Glyceraldehyde-3-phosphate dehydrogenase (Homo sapiens, UniProt P04406).

Glyceraldehyde-3-phosphate dehydrogenase, sequence (P04406 whole entry): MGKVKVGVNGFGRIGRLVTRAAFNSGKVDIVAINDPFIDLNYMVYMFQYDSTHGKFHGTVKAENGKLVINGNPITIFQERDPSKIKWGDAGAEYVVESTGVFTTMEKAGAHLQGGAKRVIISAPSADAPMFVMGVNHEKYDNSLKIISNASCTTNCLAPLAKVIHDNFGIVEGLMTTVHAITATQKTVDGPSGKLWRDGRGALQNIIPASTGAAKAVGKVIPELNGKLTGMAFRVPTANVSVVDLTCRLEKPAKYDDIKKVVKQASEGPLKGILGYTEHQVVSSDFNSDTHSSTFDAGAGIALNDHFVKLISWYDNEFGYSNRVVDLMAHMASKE
Paired box protein Pax-8, sequence (Q06710 whole entry): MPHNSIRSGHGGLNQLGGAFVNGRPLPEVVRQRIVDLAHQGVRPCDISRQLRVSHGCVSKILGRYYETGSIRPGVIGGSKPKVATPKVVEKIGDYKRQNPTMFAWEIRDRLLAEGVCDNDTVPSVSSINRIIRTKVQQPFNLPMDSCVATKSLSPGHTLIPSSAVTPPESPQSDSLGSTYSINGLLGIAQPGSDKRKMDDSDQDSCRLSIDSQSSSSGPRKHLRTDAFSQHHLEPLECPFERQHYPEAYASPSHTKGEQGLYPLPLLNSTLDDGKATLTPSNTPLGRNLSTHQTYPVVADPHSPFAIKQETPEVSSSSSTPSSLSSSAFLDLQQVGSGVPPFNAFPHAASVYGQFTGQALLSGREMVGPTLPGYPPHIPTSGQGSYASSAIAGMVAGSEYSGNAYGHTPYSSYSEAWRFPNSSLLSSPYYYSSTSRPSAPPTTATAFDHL

`CCOc1ccc2c(c1)c1nc3ccccc3nc1n2C`: the EC50 in assay [1] and in assay [2] was > 99 µM (inactive) throughout. Take `CN(C(=O)c1ccc(S(=O)(=O)c2cccc(Cl)c2)c([N+](=O)[O-])c1)C1CCCCC1`: the AC50 is 5.56 µM (active) in assay [3]; 15.8 µM (active) in assay [4]; 16.2 µM (active) in assay [5]; 5.15 µM (active) in [6]; 7.45 µM (active) in [7]; 13.8 µM (active) in [8]. The concentration giving a half-maximal response (EC50) on Protein RecA is 4.33 µM (active). Turning to `Cc1nn(CCCC(=O)O)c(C)c1[N+](=O)[O-]`, the IC50 is > 109 µM (inactive) in assay [9] and > 83.4 µM (inactive) in [10]. For `COc1ccc(NC(=O)[C@H](Cc2c[nH]c3ccccc23)NC(=O)[C@@H]2Cc3ccccc3CN2)cc1`, in the assay on Vero, the IC50 was 11.8 µM (active). In the case of `Cc1ccc(C[S+]([O-])Cc2ccc(C(=O)NC3CCC(C)CC3)o2)cc1` (stereo unspecified), the IC50 in [11] was 13.8 µM (active). Still for that read-out and setting: then `CCN(CC)CCCNC(=O)c1cc(-c2ccc(Cl)c(Cl)c2)on1`, with 12.9 µM (active).

In the case of `NS(=O)(=O)c1ccc(Cl)cc1[N+](=O)[O-]`, on Coagulation factor XII, the IC50 was > 50 µM (inactive). `Oc1ccccc1-c1nc(NCc2ccccc2)c2ccccc2n1`: the EC50 in assay [1] and in [2] was > 99 µM (inactive) throughout.

As for `Cc1ccc(-n2c(C)nn(Cc3ccc([N+](=O)[O-])cc3)c2=O)cc1`, the IC50 in [9] was > 109 µM (inactive); in assay [10], > 83.4 µM (inactive). For `O=C(Nc1ccc(Cl)c(C(F)(F)F)c1)N1CCCC(O)C1` (stereo unspecified), on Coagulation factor XII, the IC50 is > 50 µM (inactive). As for `Cn1nnnc1Sc1ncnc2scc(-c3cccc(C(F)(F)F)c3)c12`, the AC50 is 3.41 µM (active) at Paired box protein Pax-8; 10.1 µM (active) in assay [4]; 16.4 µM (active) in assay [5]; 6.18 µM (active) in assay [6]; 5.97 µM (active) in assay [7]; 9.08 µM (active) in assay [8]. As for `CCC(=O)NC(C)C(c1cccs1)N1CCOCC1` (stereo unspecified), the results for the IC50 in assay [9] and in assay [10] were > 109 µM (inactive) and > 83.3 µM (inactive), respectively. For the compound `CC(=O)NS(=O)(=O)c1ccc(NC(=S)NC(=O)c2ccco2)cc1`, the IC50 on Coagulation factor XII was > 50 µM (inactive). As to `CN(C)S(=O)(=O)c1cccc(NC(=O)COC(=O)COc2ccc(Br)cc2)c1`, the IC50 in assay [9] was > 109 µM (inactive); in [10] it was > 83.3 µM (inactive).

With `O=C(Nc1ccc(S(=O)(=O)Nc2cnc3ccccc3n2)cc1)c1cc(F)c(F)cc1Cl`, the IC50 in assay [11] was 12.1 µM (active). Take `COc1cc(C(N)=O)cc(Cl)c1OC`: on Coagulation factor XII, the IC50 is > 50 µM (inactive). As for `Cc1ccc(NC(=O)c2ncn(CC(=O)N3CCN(c4ccccn4)CC3)n2)cc1C`, the AC50 in assay [4] and in assay [5] was > 52 µM (inactive) throughout. With `O=C(O)COc1ccc(NC(=O)c2cccs2)cc1`, the IC50 was > 109 µM (inactive) in assay [9] and > 83.3 µM (inactive) in assay [10]. For the compound `CC/C(C)=N/NS(=O)(=O)c1ccc(C)c([N+](=O)[O-])c1`, the EC50 in assay [1] is > 99 µM (inactive); in [2], 7.91 µM (active). As to `CC(/C=C/c1ccco1)=N\NC(=O)CNc1ccc2ccccc2c1`, the concentration for half-maximal inhibition (IC50) in [12] is given as > 50 µM (not active). `CC(C)CCNC(=O)c1cc(-c2ccc(Cl)cc2Cl)n[nH]1`: the IC50 in [13] was > 10 µM (inconclusive).
